For three compounds, IC50 results are on record in ChEMBL document CHEMBL6109042, “Metabologenomics-Driven Discovery of Nocardimicins from a Psychrophilic Nocardia sp. Strain” (J Nat Prod, 2025).

Each structure is given as a SMILES string.

The assay has as its system HeLa. The assay is described as follows: Cytotoxicity against human HeLa cells. The format is functional, cell-based.
As a reminder, the IC50 is the concentration that gives 50% inhibition. Read a high IC50 as weaker potency in that assay. `CCCCCCCCCCCCC/C=C\CCC(OC(=O)[C@H](CCCCN(O)C=O)NC(=O)[C@H]1N=C(c2ccccc2O)O[C@@H]1C)C(C)C(=O)N[C@@H]1CCCCN(O)C1=O` (stereo partly drawn): inhibition was half-maximal at 16.7 µM (IC50). This lies in the double-digit micromolar range.
Turning to `CCCCCCCCCCCCCCCCCC(OC(=O)[C@H](CCCCN(O)C=O)NC(=O)[C@H]1N=C(c2ccccc2O)O[C@@H]1C)C(C)C(=O)N[C@@H]1CCCCN(O)C1=O` (stereo partly drawn), the IC50 came out at 16.7 µM.
As for `CCCCCCCCCCCCCCCC(OC(=O)[C@H](CCCCN(O)C=O)NC(=O)[C@H]1N=C(c2ccccc2O)O[C@@H]1C)C(C)C(=O)N[C@@H]1CCCCN(O)C1=O` (stereo partly drawn), the IC50 stood at 16.7 µM.
